The source made the active and inactive calls.
Columns and labels:
[1] = biological target: Heat shock protein HSP 90-alpha (Homo sapiens, UniProt P07900); type: functional, organism-based
[2] = inhibitors of firefly luciferase expression or activity, dose response, H4 neuroglioma cells, luminescence (AID 1990); type: functional, cell-based
[3] = HepG2 cell cytotoxicity, dose response, cytotoxicity control for Shn3 inhibitor project, CellTiter-Glo, cherry-picked (AID 624134); type: functional, cell-based
[4] = Luminescence Cell-Based Dose Retest to Confirm Inhibitors of Cancer Stem Cells. [Related pubchem assays (depositor defined):AID2717, AID2721]; type: functional; settings: Homo sapiens
[5] = Shn3 3'UTR reporter inhibitors, dose response, cell-based, Clone20 osteoblasts, firefly luciferase, cherry-picked (AID 624132); type: functional;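 note: firefly luciferase luminescence from reporter carrying the Shn3 3'UTR in osteoblasts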
[6] = control 3'UTR Renilla luciferase suppression, dose response, counter-screen for Shn3 inhibitor project, cell-based, Clone20-Shn3RL, cherry-picked (AID 624133); type: functional
Beta Lactamase = Beta Lactamase (Pseudomonas aeruginosa, UniProt Q932Y6); assay: beta-lactamase reporter inhibitor potency, dose response, artefact control for TLR9-MyD88 binding inhibitor project, BLA reporter cells, FRET fluorescence (AID 588341); type: cell-based;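 note: cell based assay in CHO-K1 cells stably expressing beta-lactamase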
[7] = Luminescence Cell-Based Dose Response HTS to Identify Inhibitors of 5'UTR Stem-Loop Driven Prion Protein mRNA Translation in H4 Neuroglioblastoma Cells. [Related pubchem assays: 1827 (Project Summary), 1813 (Primary HTS)]; type: functional
Beta-galactosidase = Beta-galactosidase (Escherichia coli, UniProt Q8VNN2); assay: PubChem AID 485352; type: functional
[8] = biological target: T1, Type-1 angiotensin II receptor (Homo sapiens, UniProt P30556); assay: AT1 receptor antagonists, dose response, selectivity assay for APJ receptor antagonist project, cell-based, uHTS hits (AID 463214); type: functional;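 note: antagonist potency against angiotensin II stimulated AT1 response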
T1 sequence (P30556 whole entry): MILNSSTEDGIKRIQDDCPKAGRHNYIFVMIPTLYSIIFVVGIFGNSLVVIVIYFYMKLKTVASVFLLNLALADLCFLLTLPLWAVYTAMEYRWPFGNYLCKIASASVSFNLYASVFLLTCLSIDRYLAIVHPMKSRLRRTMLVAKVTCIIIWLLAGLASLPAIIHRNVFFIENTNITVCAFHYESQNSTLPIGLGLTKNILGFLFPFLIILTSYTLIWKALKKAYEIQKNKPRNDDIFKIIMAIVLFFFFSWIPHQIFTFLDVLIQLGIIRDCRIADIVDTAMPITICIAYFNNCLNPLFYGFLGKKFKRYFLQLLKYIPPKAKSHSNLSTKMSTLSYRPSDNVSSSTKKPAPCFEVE

[9] = inhibitors of SNCA 5'UTR-driven reporter translation, confirmation, H4 neuroglioma cells, luminescence (AID 1988); type: functional, cell-based
INS1 = assay: beta cell apoptosis inhibitors, cytokine rescue, dose response, luminescence, retest (AID 449756); type: functional, cell-based; settings: Rattus norvegicus;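 note: cell death triggered by IL-1 beta plus TNF-alpha plus IFN-gamma mixture; protective hits raise ATP signal compared with cytokine alone wells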
CHO = assay: cytotoxicity in TLR9-MyD88 CHO cells, dose response, cytotoxicity control for TLR9-MyD88 binding inhibitor project, cell-based, luminescence (AID 588339); type: functional, hamster; settings: Cricetulus griseus;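 note: CHO cells stably coexpressing TLR9 and MyD88 fusions from primary screen; compound exposure lasted 48 hours before viability readout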
MEF = assay: SAR analysis of small molecule cytotoxicity of MazEF TA System activators in embryonic fibroblast (MEF) cells. [Related pubchem assays (depositor defined):AID504720, AID504743]; type: functional; settings: Mus musculus
[10] = biological target: T2, Endoribonuclease toxin MazF (Escherichia coli K-12, UniProt P0AE70); assay: SAR analysis of small molecule activators of the MazEF TA System via a fluorescence-based single-stranded RNase assay counterscreen. [Related pubchem assays (depositor defined):AID504720, AID504743]; type: functional
T2 sequence (P0AE70 whole entry): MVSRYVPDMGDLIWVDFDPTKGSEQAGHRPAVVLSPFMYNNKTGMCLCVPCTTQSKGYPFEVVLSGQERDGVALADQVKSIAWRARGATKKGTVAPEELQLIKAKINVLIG

[11] = biological target: T2, Endoribonuclease toxin MazF; assay: MazF toxin RNase activators, dose response, biochemical, fluorescence, single-stranded RNA substrate, uHTS hits (AID 588481); type: functional
[12] = biological target: T2, Endoribonuclease toxin MazF; assay: MazF endoribonuclease activators, SAR follow-up, biochemical, fluorescence, single-stranded RNA substrate (AID 588603); type: functional
[13] = biological target: T2, Endoribonuclease toxin MazF; assay: fluorescent RNA oligo signal without MazF, dose response, counter-screen for MazEF activator project, biochemical, fluorescence, single-stranded RNase substrate (AID 588502); type: functional

Sequence of Beta Lactamase (Q932Y6 whole entry): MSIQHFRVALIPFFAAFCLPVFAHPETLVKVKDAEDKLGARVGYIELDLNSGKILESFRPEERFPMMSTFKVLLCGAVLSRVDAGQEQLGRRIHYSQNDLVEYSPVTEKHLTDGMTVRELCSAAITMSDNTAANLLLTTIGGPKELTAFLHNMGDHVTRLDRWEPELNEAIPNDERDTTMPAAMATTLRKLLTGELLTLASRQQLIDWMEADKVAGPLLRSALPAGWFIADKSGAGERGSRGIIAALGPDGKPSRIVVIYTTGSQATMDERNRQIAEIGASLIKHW
Sequence of Beta-galactosidase (Q8VNN2 whole entry): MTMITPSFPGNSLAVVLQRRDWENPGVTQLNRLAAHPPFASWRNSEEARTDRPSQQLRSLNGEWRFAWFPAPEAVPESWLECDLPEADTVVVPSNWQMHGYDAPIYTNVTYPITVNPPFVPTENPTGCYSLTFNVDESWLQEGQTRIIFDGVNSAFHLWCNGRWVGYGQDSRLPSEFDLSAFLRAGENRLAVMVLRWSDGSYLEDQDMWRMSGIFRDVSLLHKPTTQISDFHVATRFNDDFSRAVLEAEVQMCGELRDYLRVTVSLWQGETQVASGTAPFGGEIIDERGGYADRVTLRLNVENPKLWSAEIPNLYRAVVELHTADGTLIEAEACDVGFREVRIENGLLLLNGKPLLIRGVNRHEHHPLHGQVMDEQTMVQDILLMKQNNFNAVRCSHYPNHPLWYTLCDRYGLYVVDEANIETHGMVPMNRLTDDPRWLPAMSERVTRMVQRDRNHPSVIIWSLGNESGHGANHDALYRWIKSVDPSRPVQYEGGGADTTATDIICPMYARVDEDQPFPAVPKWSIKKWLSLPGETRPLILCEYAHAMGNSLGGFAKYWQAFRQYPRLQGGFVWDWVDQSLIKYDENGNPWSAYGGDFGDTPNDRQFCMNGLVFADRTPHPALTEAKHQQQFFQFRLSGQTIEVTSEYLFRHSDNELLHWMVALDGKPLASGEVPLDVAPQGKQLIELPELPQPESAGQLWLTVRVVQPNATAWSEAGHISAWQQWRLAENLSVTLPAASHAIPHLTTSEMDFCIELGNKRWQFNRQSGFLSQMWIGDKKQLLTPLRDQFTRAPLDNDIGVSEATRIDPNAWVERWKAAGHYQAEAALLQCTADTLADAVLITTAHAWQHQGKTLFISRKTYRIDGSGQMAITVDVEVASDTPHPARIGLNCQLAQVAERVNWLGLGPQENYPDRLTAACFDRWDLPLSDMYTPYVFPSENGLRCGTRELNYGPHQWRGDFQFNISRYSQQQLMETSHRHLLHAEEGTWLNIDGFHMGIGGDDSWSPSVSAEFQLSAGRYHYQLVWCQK

| SMILES | AC50 [1] | EC50 [2] | AC50 [3] | AC50 [4] | AC50 [5] | AC50 [6] | IC50 (Beta Lactamase) | EC50 [7] | EC50 (Beta-galactosidase) | IC50 [8] | EC50 [9] | AC50 (INS1) | IC50 (CHO) | CC50 (MEF) | EC50 [10] | EC50 [11] | EC50 [12] | EC50 [13] |
| --- | --- | --- | --- | --- | --- | --- | --- | --- | --- | --- | --- | --- | --- | --- | --- | --- | --- | --- |
| COc1ccc(OC)c(NC(=O)c2nc(S(=O)(=O)Cc3ccccc3)ncc2Cl)c1 | 2.95 µM (active) | 12.2 µM (active) | 13.7 µM (active) | 3.48 µM (active) | 2.08 µM (active) | 3.79 µM (active) | 6.72 µM (active) | > 120 µM (not active) | > 40 µM (inactive) | 5.87 µM (active) | 11.6 µM (active) | 5.38 µM (active) | 1.05 µM (active) | – | – | – | – | – |
| Cc1ccc2nc(NCCc3ccc(Cl)cc3)c3nncn3c2c1 | – | – | – | – | – | – | – | – | – | – | – | – | – | > 99 µM (inactive) | > 99 µM (inactive) | 33.1 µM (inactive) | 17.7 µM (active) | > 99 µM (inactive) |
